Laboratory results reported in patent US20250382305A1 (PTC THERAPEUTICS, INC., priority 2022, published 2025).

Legend:
[1] = test system: ATXN3 pre-mRNA; experiment: RT-qPCR Assay to Quantify Exon 4 Skipping in ATXN3 pre-mRNA in Cells; type: cell-based; details: percent exon 4 skipping in ATXN3 pre-mRNA, RT-qPCR of cell lysates; average IC50
Summary of the method: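 Cells plated at 10,000/well onto a 7-point, 3.16-fold DMSO dilution series (duplicates), incubated 24 h at 37 °C, then lysed. Exon 4 skipping measured by one-step RT-qPCR (48 °C RT, 40 cycles); IC50 interpolated from dose-response fit of percent skipping.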

[2] = test system: Total ATXN3 (tATXN3) protein; experiment: Endogenous Total ATXN3 (tATXN3) Protein Assay (MSD immunoassay of cell lysates); type: cell-based; details: average IC50, total ATXN3 protein in cell lysate after 48 h with compound (Table 1)
Summary of the method: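 Cells in DMEM/10% FBS were plated at 10,000 per well onto 7-point, 3.16-fold compound dilutions in duplicate for 48 h at 37° C, then lysed. Total ATXN3 in lysates was measured by MSD sandwich immunoassay: mouse anti-ATXN3 capture, rabbit anti-ATXN3 detection, SULFO-TAG anti-rabbit. Average IC50 was reported in star bins.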

Row | Molecule | IC50 [1] | IC50 [2]
1 | 2-((1R,5S,6S)-6-amino-5-methoxycyclohex-3-en-1-yl)-3-bromo-5-chloro-N-(thiophen-2-ylmethyl)thieno[3,2-b]pyridin-7-amine and 2-((1S,5R,6R)-6-amino-5-methoxycyclohex-3-en-1-yl)-3-bromo-5-chloro-N-(thiophen-2-ylmethyl)thieno[3,2-b]pyridin-7-amine [Compound 371] | 30 to 300 nM | 30 to 300 nM
2 | 2-((1R,6S)-6-amino-2,2-difluorocyclohexyl)-3-bromo-N-((E)-but-2-en-1-yl)-5-chlorothieno[3,2-b]pyridin-7-amine and 2-((1S,6R)-6-amino-2,2-difluorocyclohexyl)-3-bromo-N-((E)-but-2-en-1-yl)-5-chlorothieno[3,2-b]pyridin-7-amine [Compound 425] | 300 to 1000 nM | > 1000 nM
3 | Cc1c([C@@H]2OCCC[C@H]2N)sc2c(NCc3ccccc3)nc(Cl)nc12 [Compound 64, 6-((2R,3R)-3-aminotetrahydro-2H-pyran-2-yl)-N-benzyl-2-chloro-7-methylthieno[3,2-d]pyrimidin-4-amine] | > 1000 nM | > 1000 nM
4 | N[C@H]1CCCN(c2ccccc2)[C@H]1c1sc2c(NCc3cccs3)cc(Cl)nc2c1Br (racemic) [Compound 125, 2-((2R,3S)-3-amino-1-phenylpiperidin-2-yl)-3-bromo-5-chloro-N-(thiophen-2-ylmethyl)thieno[3,2-b]pyridin-7-amine and 2-((2S,3R)-3-amino-1-phenylpiperidin-2-yl)-3-bromo-5-chloro-N-(thiophen-2-ylmethyl)thieno[3,2-b]pyridin-7-amine] | > 1000 nM | > 1000 nM
5 | 2-((3R,4S)-3-aminotetrahydro-2H-pyran-4-yl)-3,5-dichloro-N-(furan-2-ylmethyl)thieno[3,2-b]pyridin-7-amine and 2-((3S,4R)-3-aminotetrahydro-2H-pyran-4-yl)-3,5-dichloro-N-(furan-2-ylmethyl)thieno[3,2-b]pyridin-7-amine [Compound 314] | 30 to 300 nM | 30 to 300 nM

Second part, the molecule after the results:

Row | IC50 [1] | IC50 [2] | Molecule
6 | 30 to 300 nM | 30 to 300 nM | CCc1c([C@H]2CCCCC[C@@H]2N)sc2c(NCc3cccs3)cc(Cl)nc12 (single isomer, unassigned) [Compound 87, 2-((1S,2S)-2-aminocycloheptyl)-5-chloro-3-ethyl-N-(thiophen-2-ylmethyl)thieno[3,2-b]pyridin-7-amine or 2-((1R,2R)-2-aminocycloheptyl)-5-chloro-3-ethyl-N-(thiophen-2-ylmethyl)thieno[3,2-b]pyridin-7-amine]
7 | > 1000 nM | > 1000 nM | N[C@@H]1CCCCCC[C@@H]1c1sc2c(NCc3cccs3)cc(Cl)nc2c1Br [Compound 101, 2-((1S,2R)-2-aminocyclooctyl)-3-bromo-5-chloro-N-(thiophen-2-ylmethyl)thieno[3,2-b]pyridin-7-amine]
8 | ≤ 30 nM | ≤ 30 nM | N[C@H]1CC=CC[C@@H]1c1sc2c(NCc3cccs3)cc(Cl)nc2c1Br [Compound 186, 2-((1S,6S)-6-aminocyclohex-3-en-1-yl)-3-bromo-5-chloro-N-(thiophen-2-ylmethyl)thieno[3,2-b]pyridin-7-amine]
9 | > 1000 nM | > 1000 nM | N[C@@H]1CCCCCC[C@H]1c1cc2nc(Cl)cc(NCc3cccs3)c2s1 [Compound 105, 2-((1R,2R)-2-aminocyclooctyl)-5-chloro-N-(thiophen-2-ylmethyl)thieno[3,2-b]pyridin-7-amine]
10 | 30 to 300 nM | 300 to 1000 nM | N[C@@H]1CCCO[C@H]1c1c(Br)c2nc(Cl)cc(NCc3ccco3)c2n1C(F)F [Compound 426, 2-((2R,3R)-3-aminotetrahydro-2H-pyran-2-yl)-3-bromo-5-chloro-1-(difluoromethyl)-N-(furan-2-ylmethyl)-1H-pyrrolo[3,2-b]pyridin-7-amine]
